Data taken from US20170202939A1, “PERSONALIZED CANCER VACCINES AND METHODS THEREFOR” (Washington University, priority 2014, published 2017).
Read-outs that look alike come from different tables or passages of the source. No end group written: not given here.

What was measured:
HLA-A*02:01 = biological target: T1, HLA-A*02:01 (Homo sapiens, UniProt P04439, D140Y/D185E/D98H/E176V/E277Q/G131W/G231S/I119V/I121R/I166T/I218V/L300P/L318F/N151K/N90K/P208A/P217A/Q86G/Q94H/R138H/R169H/T345S); assay: fluorescence polarization-based competitive peptide binding assay
T1 construct: purchased Pure Protein, L.L.C

DM6 cells expressing TMC = assay: processing and presentation: T cells co-cultured with DM6 expressing tandem mini-gene constructs (51Cr release, IFN-γ ELISA); type: cell-based, human; settings: for neoantigen processing and presentation (cytotoxic activity, IFN-γ production): DM6 expressing AAS-/MUT-encoding mini-gene construct
Excerpt: As illustrated in FIG. 9 and FIG. 10, to determine whether vaccine-induced T cells could recognize naturally processed antigen, the melanoma tumor cell line DM6 was transduced with a multi-mini-gene construct encoding mutated (MUT) or wild-type (WT) sequences of peptides incorporated into a vaccine. FIG. 9 illustrates that each minigene consists of 21 aa encoding either the MUT or WT sequences. A scheme depicting minigene construct characteristics and a representative MUT 21-mer aa sequence encoded in construct is shown. Vaccine-induced T cells, specific for AKAP13 containing the Q285K mutation, were incubated with MUT or WT expressing DM6 cells, supernatants collected after 24 h of incubation, and IFN-γ produced by T cells was measured in supernatants by ELISA (FIG. 10).
Tandem mini-gene constructs (TMC) were used for evaluating processing and presentation of neoantigens. All constructs were 19-21-mers encoding AAS- or WT-sequences for peptides included in vaccine. No spacers are present between sequences. A ubiquitination signal and two mini-gene controls (encoding G280 and WNV SVG9 peptides) were included to monitor processing and presentation. The amino acid sequence of a 21-mer encoding TMEM48 F169L is shown with mutated amino acid residue underlined. TMC also encoded the West Nile Virus (WNV) SVG9 (McMurtrey, C. P., et al., P.N.A.S., 105, 2981-2986, 2008) and melanoma G280 (Cox, A. L., et al., Science, 264, 716-719, 1994) antigenic determinants as controls (Table 6).
TMC were cloned into pMX (GFP+), expressed as retrovirus and used to transfect the HLA-A*02:01+ melanoma lines DM6 (Darrow, T. L., et al., J. Immunol., 142, 3329-3335, 1989) or A375 (obtained from ATCC and mycoplasma free). TMC expressing cells were selected by sorting for GFP+ cells expressing cell surface HLA-A*02:01/SVG9 peptide complexes as detected by a T cell receptor mimic (TCRm) monoclonal antibody (Kim S., et al., J. Immunol., 184, 4423-4430, 2010). AAS- and WT-TMC reactivity with the HLA-A*02:01/SVG9 peptide complex specific TCRm monoclonal antibody validated expression of the mini-gene constructs. […] Results are shown for parental DM6 (shaded histogram) and DM6 cells expressing AAS—(dashed line) and WT (solid line) TMC constructs. A representative experiment of four performed is shown.
DM6 cells expressing TMC were labeled with 25μCi ^51Cr for 1 h, washed and tested as targets in a standard 4 h assay using neoantigen-specific T cells as effectors (Carreno B. M. et al. 2012 J Immunol 188, 5839). DM6 cells expressing AAS—(closed rectangles) or WT—(closed circles) TMC were co-cultured with neoantigen-specific T cells at a 1:1 ratio, supernatants harvest at 16 h and IFN-γ production evaluated by ELISA as described (Carreno, B. M., et al., J Immunol., 188, 58395849, […]; plots in FIG. 38). Open triangles represent lysis obtained with parental DM6 cells. Percent specific lysis of triplicates (mean+standard deviation) is shown for each E:T ratio; spontaneous lysis was <5%. A representative experiment of two independent evaluations is shown.
FIG. 39 illustrates that neoantigen-specific CD8 T cells were co-cultured with DM6 expressing AAS- or WT-encoding TMC for 20 h and IFN-γ production determined by ELISA. T cells cultured with parental DM6 cells are indicated as media. Mean values+/−SD of duplicates are shown. Results are representative of 2 experiments performed. […] None of the neoantigen-specific T cells recognized WT-encoding TMC (FIGS. 38 and 39). Based on these findings and the immune monitoring results (FIG. 31), the nine neoantigens identified in this study fall into three distinct antigenic determinant categories (Sercarz, E. E., et al., Annu. Rev. Imunol., 11, 729-766, 1993; Assarsson, E., et al., J. Immunol., 178, 7890-7901, 2007).

[1] = fluorescence polarization-based competitive peptide-binding assay, high affinity log(IC50; nM) <3.7, read-out: Experimental Affinity log(IC50) (converted)

Sequence	IC50 (HLA-A*02:01; [1]) [nM]	Recognition of processed antigen (DM6 cells expressing TMC)	neoantigen processing and presentation (cytotoxic activity, IFN-γ production) (DM6 cells expressing TMC)	IC50 (HLA-A*02:01) [nM]	neoantigen processing and presentation (cytotoxic activity, IFN-γ production) (DM6 cells expressing TMC; listed as AKAP13 (Q285K))	neoantigen processing and presentation (cytotoxic activity, IFN-γ production) (DM6 cells expressing TMC; listed as AKAP13 Q285K)
CLNEYHLFL	1230	Yes	processed and presented			
IILVAVPHV			processed and presented			
KLMNIQQKL		Yes		1170	processed, presented and recognized by vaccine-induced T cells	processed and presented
MLGEQLFPL	224	Yes	processed and presented			
QLSCISTYV	1260	No	not processed and presented			
